Measured values: PMC11864979, “First-in-class ultralong-target-residence-time p38α inhibitors as a mitosis-targeted therapy for colorectal cancer” (Nature Cancer, 2025)
Like-named read-outs stand apart in the source and are kept apart here.

Assays:
Experiment in all cases: selectivity profiling in a panel of 340 wild-type kinases (Reaction Biology Europe)
Assay type in all cases: binding
[1] = biological target: T1, 340 wild-type kinases (Homo sapiens, UniProt P54764)
T1 construct: purchased Reaction Biology Europe
T1 sequence (P54764 20-986): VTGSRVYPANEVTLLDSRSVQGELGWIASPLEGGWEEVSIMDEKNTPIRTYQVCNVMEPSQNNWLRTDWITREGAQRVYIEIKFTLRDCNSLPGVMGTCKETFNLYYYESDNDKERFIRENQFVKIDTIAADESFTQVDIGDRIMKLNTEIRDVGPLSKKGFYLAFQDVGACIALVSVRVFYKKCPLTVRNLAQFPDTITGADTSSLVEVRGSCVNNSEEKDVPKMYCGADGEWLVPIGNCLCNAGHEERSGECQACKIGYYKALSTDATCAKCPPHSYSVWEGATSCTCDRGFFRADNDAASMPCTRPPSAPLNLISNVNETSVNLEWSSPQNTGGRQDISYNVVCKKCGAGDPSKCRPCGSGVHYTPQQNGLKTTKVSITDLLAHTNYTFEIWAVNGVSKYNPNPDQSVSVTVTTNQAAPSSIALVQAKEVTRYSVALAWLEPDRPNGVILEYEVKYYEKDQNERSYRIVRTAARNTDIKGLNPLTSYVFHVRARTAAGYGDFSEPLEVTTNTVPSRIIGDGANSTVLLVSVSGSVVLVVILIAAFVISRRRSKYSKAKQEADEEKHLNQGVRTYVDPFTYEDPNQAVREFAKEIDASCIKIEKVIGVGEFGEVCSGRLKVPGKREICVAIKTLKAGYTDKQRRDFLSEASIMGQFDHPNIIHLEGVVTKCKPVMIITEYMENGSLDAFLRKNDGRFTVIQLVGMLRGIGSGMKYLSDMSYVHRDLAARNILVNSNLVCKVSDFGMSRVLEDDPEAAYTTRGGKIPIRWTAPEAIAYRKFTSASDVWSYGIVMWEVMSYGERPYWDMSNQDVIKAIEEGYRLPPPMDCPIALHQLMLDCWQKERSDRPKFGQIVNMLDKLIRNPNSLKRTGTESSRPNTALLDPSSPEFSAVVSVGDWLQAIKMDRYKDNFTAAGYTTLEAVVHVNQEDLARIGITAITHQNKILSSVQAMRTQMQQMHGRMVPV

[2] = biological target: T2, 340 wild-type kinases (Homo sapiens, UniProt Q05513)
T2 construct: purchased Reaction Biology Europe
T2 sequence (Q05513 1-592): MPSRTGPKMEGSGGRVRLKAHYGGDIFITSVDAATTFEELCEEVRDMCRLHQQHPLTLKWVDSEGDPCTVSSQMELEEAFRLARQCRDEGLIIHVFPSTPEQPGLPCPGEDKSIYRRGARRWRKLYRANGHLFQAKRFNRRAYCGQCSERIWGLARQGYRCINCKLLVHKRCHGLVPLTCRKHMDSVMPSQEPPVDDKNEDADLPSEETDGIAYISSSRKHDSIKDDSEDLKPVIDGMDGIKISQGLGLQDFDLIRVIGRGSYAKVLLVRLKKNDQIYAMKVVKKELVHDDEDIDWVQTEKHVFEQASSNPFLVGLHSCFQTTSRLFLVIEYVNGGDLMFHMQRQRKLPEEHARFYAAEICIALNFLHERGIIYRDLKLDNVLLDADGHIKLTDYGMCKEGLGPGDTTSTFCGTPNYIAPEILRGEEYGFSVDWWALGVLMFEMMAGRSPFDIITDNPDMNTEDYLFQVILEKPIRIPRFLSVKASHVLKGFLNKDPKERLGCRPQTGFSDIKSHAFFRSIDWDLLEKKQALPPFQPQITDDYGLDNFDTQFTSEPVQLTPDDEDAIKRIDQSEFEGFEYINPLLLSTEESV

[3] = biological target: T3, 340 wild-type kinases (Homo sapiens, UniProt Q13237)
T3 construct: purchased Reaction Biology Europe
T3 sequence (Q13237 1-762): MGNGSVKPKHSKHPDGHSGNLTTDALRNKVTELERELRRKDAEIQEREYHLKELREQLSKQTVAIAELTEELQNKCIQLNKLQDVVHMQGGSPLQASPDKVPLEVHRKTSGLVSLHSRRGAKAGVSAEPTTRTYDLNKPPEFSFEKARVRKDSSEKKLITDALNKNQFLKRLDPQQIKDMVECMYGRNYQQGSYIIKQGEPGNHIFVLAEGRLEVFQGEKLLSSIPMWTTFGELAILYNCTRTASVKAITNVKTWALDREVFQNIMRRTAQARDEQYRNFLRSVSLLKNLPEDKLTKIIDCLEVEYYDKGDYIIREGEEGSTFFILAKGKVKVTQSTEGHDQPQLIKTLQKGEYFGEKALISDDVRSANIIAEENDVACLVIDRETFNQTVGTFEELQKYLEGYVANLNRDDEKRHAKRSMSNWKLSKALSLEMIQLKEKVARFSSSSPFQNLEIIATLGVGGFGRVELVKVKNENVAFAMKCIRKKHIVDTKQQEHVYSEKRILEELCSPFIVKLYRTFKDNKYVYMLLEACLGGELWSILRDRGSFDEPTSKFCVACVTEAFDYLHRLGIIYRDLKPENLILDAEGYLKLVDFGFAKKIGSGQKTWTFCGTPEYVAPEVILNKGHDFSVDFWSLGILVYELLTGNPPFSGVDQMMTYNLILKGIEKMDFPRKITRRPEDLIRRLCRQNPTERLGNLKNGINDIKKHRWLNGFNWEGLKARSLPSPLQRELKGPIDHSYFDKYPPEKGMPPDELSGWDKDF

[4] = biological target: T4, 340 wild-type kinases (Homo sapiens, UniProt Q9Y3S1)
T4 construct: purchased Reaction Biology Europe
T4 sequence (Q9Y3S1 whole entry): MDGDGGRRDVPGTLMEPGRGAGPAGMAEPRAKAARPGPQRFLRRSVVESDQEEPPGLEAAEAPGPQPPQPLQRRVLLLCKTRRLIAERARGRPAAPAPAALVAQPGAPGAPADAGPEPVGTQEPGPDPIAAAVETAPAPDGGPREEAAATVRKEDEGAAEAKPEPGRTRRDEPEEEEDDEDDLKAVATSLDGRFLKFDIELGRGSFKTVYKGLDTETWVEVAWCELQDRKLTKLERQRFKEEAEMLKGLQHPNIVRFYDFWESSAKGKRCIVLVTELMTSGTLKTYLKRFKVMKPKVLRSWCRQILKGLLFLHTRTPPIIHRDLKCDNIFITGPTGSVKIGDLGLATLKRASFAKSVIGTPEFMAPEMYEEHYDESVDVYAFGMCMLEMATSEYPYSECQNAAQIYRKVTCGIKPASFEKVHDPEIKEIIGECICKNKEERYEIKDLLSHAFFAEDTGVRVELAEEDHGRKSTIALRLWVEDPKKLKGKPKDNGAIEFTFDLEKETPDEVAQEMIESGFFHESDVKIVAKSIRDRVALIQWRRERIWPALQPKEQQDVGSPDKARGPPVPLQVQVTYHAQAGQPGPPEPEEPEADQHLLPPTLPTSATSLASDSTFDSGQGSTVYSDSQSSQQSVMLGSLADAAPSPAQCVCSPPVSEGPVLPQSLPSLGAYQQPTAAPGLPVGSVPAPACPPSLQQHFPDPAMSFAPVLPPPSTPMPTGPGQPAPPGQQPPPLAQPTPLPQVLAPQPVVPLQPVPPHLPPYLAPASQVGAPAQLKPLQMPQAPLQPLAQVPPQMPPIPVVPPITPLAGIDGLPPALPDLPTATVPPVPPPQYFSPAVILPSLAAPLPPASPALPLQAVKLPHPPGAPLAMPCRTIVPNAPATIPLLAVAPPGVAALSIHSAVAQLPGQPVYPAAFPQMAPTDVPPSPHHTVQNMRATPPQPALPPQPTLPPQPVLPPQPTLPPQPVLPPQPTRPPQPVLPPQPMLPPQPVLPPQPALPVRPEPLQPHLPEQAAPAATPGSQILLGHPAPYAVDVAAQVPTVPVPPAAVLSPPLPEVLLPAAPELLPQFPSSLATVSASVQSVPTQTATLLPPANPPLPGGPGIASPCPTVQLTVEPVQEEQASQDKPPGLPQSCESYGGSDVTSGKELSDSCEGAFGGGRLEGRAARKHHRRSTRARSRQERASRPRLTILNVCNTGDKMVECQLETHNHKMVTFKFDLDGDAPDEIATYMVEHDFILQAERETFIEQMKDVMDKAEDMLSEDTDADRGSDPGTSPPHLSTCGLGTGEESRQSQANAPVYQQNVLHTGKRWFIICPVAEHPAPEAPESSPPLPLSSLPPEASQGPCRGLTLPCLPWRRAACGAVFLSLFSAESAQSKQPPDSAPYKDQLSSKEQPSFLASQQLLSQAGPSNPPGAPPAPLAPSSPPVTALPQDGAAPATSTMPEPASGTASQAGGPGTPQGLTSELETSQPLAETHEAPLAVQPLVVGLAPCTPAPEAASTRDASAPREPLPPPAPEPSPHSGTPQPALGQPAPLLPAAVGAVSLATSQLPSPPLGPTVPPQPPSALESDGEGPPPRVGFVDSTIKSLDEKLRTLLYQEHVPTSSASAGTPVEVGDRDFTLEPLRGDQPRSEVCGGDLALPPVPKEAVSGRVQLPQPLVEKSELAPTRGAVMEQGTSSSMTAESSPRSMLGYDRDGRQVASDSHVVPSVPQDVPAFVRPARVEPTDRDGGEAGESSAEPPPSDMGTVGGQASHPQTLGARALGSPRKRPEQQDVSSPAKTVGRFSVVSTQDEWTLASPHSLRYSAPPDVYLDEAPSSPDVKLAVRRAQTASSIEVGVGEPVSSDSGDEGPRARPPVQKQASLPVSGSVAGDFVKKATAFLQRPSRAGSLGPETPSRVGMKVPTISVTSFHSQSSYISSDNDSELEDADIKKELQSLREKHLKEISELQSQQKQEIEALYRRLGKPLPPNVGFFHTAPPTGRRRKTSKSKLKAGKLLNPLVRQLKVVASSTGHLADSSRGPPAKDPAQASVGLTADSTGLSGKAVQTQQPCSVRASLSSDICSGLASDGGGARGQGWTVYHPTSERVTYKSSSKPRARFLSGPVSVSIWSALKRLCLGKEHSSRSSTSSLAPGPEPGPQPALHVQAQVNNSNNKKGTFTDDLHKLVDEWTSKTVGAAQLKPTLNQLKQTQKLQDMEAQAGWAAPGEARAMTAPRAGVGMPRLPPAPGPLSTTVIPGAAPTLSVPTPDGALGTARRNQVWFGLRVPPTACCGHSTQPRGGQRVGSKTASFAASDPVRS

[5] = biological target: T5, 340 wild-type kinases (Homo sapiens, UniProt Q15208)
T5 construct: purchased Reaction Biology Europe
T5 sequence (Q15208 whole entry): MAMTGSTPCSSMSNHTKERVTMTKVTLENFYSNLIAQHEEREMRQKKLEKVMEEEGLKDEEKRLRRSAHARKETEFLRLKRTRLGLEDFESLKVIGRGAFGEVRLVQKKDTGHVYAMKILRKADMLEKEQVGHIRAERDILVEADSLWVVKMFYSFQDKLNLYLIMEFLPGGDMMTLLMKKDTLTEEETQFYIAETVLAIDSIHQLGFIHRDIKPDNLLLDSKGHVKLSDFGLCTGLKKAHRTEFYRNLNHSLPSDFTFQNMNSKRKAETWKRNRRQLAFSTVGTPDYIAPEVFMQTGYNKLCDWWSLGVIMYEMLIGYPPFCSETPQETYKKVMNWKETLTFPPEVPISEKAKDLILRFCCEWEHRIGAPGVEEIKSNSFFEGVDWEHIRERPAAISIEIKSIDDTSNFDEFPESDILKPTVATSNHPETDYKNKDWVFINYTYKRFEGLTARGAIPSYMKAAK

[6] = biological target: T6, 340 wild-type kinases (Homo sapiens, UniProt Q13163)
T6 construct: purchased Reaction Biology Europe
T6 sequence (Q13163 1-448): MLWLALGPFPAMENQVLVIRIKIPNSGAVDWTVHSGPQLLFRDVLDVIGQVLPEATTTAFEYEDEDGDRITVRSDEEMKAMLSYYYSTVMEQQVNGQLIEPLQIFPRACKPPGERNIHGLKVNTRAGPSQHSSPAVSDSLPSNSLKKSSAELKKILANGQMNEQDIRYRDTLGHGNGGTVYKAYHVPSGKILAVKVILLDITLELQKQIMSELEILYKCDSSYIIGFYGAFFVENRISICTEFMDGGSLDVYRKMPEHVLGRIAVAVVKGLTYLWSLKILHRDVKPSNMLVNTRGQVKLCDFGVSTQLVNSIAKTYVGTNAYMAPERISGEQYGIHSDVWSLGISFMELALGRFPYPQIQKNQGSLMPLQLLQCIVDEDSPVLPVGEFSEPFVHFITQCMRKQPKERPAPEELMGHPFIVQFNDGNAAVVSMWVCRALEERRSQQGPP

CNC(=O)c1ccc2c(c1)C(=O)c1ccc(Nc3ccc(F)c(NC(=O)C4CC4)c3)cc1CC2 [Compound 2015]
remaining activity at 0.2 µM ([1]; 0.2 µM 2015, read-out: EPHA4 residual activity): 95.1% | remaining activity at 1 µM ([1]; 1 µM 2015, read-out: EPHA4 residual activity): 91.4% | remaining activity at 0.2 µM ([1]; EPHA4, 0.2 µM, read-out: residual activity): 95.1% | remaining activity at 1 µM ([1]; EPHA4, 1 µM, read-out: residual activity): 91.5% | remaining activity at 0.2 µM ([2]; 0.2 µM 2015, read-out: PKCzeta residual activity): 126% | remaining activity at 0.2 µM ([2]; 0.2 µM 2015, read-out: PKMzeta residual activity): 106% | remaining activity at 1 µM ([2]; 1 µM 2015, read-out: PKCzeta residual activity): 111% | remaining activity at 1 µM ([2]; 1 µM 2015, read-out: PKMzeta residual activity): 102% | remaining activity at 0.2 µM ([2]; PKCzeta, 0.2 µM, read-out: residual activity): 126% | remaining activity at 1 µM ([2]; PKCzeta, 1 µM, read-out: residual activity): 111% | remaining activity at 0.2 µM ([3]; 0.2 µM 2015, read-out: PRKG2 residual activity): 112% | remaining activity at 1 µM ([3]; 1 µM 2015, read-out: PRKG2 residual activity): 96.9% | remaining activity at 0.2 µM ([3]; PRKG2, 0.2 µM, read-out: residual activity): 112% | remaining activity at 1 µM ([3]; PRKG2, 1 µM, read-out: residual activity): 96.9% | remaining activity at 0.2 µM ([4]; 0.2 µM 2015, read-out: WNK2 residual activity): 107% | remaining activity at 1 µM ([4]; 1 µM 2015, read-out: WNK2 residual activity): 111% | remaining activity at 0.2 µM ([4]; WNK2, 0.2 µM, read-out: residual activity): 107% | remaining activity at 1 µM ([4]; WNK2, 1 µM, read-out: residual activity): 111% | remaining activity at 0.2 µM ([5]; 0.2 µM 2015, read-out: NDR1 residual activity): 91.9% | remaining activity at 1 µM ([5]; 1 µM 2015, read-out: NDR1 residual activity): 94% | remaining activity at 0.2 µM ([5]; NDR1, 0.2 µM, read-out: residual activity): 91.9% | remaining activity at 1 µM ([5]; NDR1, 1 µM, read-out: residual activity): 94% | remaining activity at 0.2 µM ([6]; 0.2 µM 2015, read-out: MEK5 residual activity): 102% | remaining activity at 1 µM ([6]; 1 µM 2015, read-out: MEK5 residual activity): 88.1% | remaining activity at 0.2 µM ([6]; MEK5, 0.2 µM, read-out: residual activity): 102% | remaining activity at 1 µM ([6]; MEK5, 1 µM, read-out: residual activity): 88.1%
